# From patent US8399462B2, “JNK modulators” (Roche Palo Alto LLC, priority 2006, dated 2013)
row,Structure (SMILES),melting point
1,"C[S+]([O-])CCCOc1cccc2c1ccn2-c1ccnc(N[C@H]2CC[C@H](C(C)(C)O)CC2)n1 (stereo partly shown) [Compound 211, 2-(4-{4-[4-(3-methane-sulfinyl-propoxy)-indol-1-yl]-pyrimidin-2-ylamino}-cyclohexyl)-propan-2-ol]",190.5 to 191 °C
2,"CC(C)(O)c1cccc2c1cnn2-c1ccnc(N[C@H]2CC[C@H](NS(C)(=O)=O)CC2)n1 [Compound 212, N-(4-{4-[4-(2-hydroxy-prop-2-yl)-indazol-1-yl]-pyrimidin-2-ylamino}-cyclohexyl)-methanesulfonamide]",250 to 251 °C
3,"CC(=O)NCCCOc1cccc2c1cnn2-c1ccnc(N[C@H]2CC[C@H](N(C)S(C)(=O)=O)CC2)n1 [Compound 213, N-[3-(1-{2-[4-(methane-sulfonyl-methylamino)-cyclohexylamino]-pyrimidin-4-yl}-1H-indazol-4-yloxy)-propyl]-acetamide]",226 to 227 °C
4,"CS(=O)(=O)CCCOc1cccc2c1ccn2-c1ccnc(N[C@H]2CC[C@H](CO)CC2)n1 [Compound 214, (4-{4-[4-(3-methanesulfonyl-propoxy)-indol-1-yl]-pyrimidin-2-ylamino}-cyclohexyl)-methanol]",207 to 208 °C
5,"CS(=O)(=O)CCCOc1cccc2c1cnn2-c1ccnc(N[C@H]2CC[C@H](N3CCCS3(=O)=O)CC2)n1 [Compound 215, [4-(1,1-dioxo-isothiazolidin-2-yl)-cyclohexyl]-{4-[4-(3-methane-sulfonyl-propoxy)-indazol-1-yl]-pyrimidin-2-yl}-amine]",206 to 207 °C
6,"CC(=O)N[C@H]1CC[C@H](Nc2nccc(-n3ccc4c(S(C)(=O)=O)cccc43)n2)CC1 [Compound 218, N-{4-[4-(4-methane-sulfonyl-indol-1-yl)-pyrimidin-2-ylamino]-cyclohexyl}-acetamide]",264 to 265 °C
7,"COCCOc1cccc2c1ccn2-c1ccnc(N[C@H]2CC[C@H](NS(C)(=O)=O)CC2)n1 [Compound 221, N-(4-{4-[4-(2-methoxy-ethoxy)-indol-1-yl]-pyrimidin-2-ylamino}-cyclohexyl)-methanesulfonamide]",203 to 205 °C
8,"COCCOc1cccc2c1ccn2-c1ccnc(N[C@H]2CC[C@H](C(=O)N3CCC(O)CC3)CC2)n1 [Compound 222, (4-hydroxy-piperidin-1-yl)-(4-{4-[4-(2-methoxy-ethoxy)-indol-1-yl]-pyrimidin-2-ylamino}-cyclohexyl)-methanone]",134 to 135 °C
9,"CS(=O)(=O)CCCOc1cccc2c1ccn2-c1ccnc(N[C@H]2CC[C@H](C(=O)N3CC(O)C3)CC2)n1 [Compound 223, (3-hydroxy-azetidin-1-yl)-(4-{4-[4-(3-methane-sulfonyl-propoxy)-indol-1-yl]-pyrimidin-2-ylamino}-cyclohexyl)-methanone]",152 to 153 °C
10,"N#CCCCOc1cccc2c1cnn2-c1ccnc(N[C@H]2CC[C@H](C(=O)N3CCC(O)CC3)CC2)n1 [Compound 226, 4-(1-{2-[4-(4-hydroxy-piperidine-1-carbonyl)-cyclohexylamino]-pyrimidin-4-yl}-1H-indazol-4-yloxy)-butyro-nitrile]",201 to 202 °C
11,"CC(C)(CO)COc1cccc2c1cnn2-c1ccnc(N[C@H]2CC[C@H](C(=O)N3CCC(O)CC3)CC2)n1 [Compound 227, (4-{4-[4-(3-hydroxy-2,2-dimethylpropoxy)-indazol-1-yl]-pyrimidin-2-ylamino}-cyclohexyl)-(4-hydroxy-piperidin-1-yl)-methanone]",213 to 214.5 °C
12,"CS(=O)(=O)N[C@H]1CC[C@H](Nc2nccc(-n3ncc4c(OCCCS(N)(=O)=O)cccc43)n2)CC1 [Compound 228, 3-{1-[2-(4-methane-sulfonylamino-cyclo-hexylamino)-pyrimidin-4-yl]-1H-indazol-4-yloxy}-propane-1-sulfonic acid amide]",250 to 251 °C
13,"CN(C)S(=O)(=O)CCCOc1cccc2c1cnn2-c1ccnc(N[C@H]2CC[C@H](C(=O)N3CCC(O)CC3)CC2)n1 [Compound 229, 3-(1-{2-[4-(4-hydroxy-piperidin-1-carbonyl)-cyclohexylamino]-pyrimidin-4-yl}-1H-indazol-4-yloxy)-propane-1-sulfonic acid dimethylamide]",190 to 191 °C
14,"CS(=O)(=O)N[C@H]1CC[C@H](Nc2nccc(-n3ccc4c(C5(O)CCS(=O)(=O)CC5)cccc43)n2)CC1 [Compound 230, N-(4-{4-[4-(4-hydroxy-1,1-dioxohexahydro-thiopyran-4-yl)-indol-1-yl]-pyrimidin-2-yl-amino}-cyclohexyl)-methanesulfonamide]",> 300 °C
15,"O=C([C@H]1CC[C@H](Nc2nccc(-n3ccc4c(C5(O)CCS(=O)(=O)CC5)cccc43)n2)CC1)N1CCC(O)CC1 [Compound 231, (4-{4-[4-(4-hydroxy-1,1-dioxo-hexahydro-thiopyran-4-yl)-indol-1-yl]-pyrimidin-2-yl-amino}-cyclohexyl)-(4-hydroxy-piperidin-1-yl)-methanone]",271 to 272 °C
16,"O=C([C@H]1CC[C@H](Nc2nccc(-n3ccc4c(C5(O)CCOCC5)cccc43)n2)CC1)N1CCC(O)CC1 [Compound 232, (4-hydroxy-piperidin-1-yl)-(4-{4-[4-(4-hydroxy-tetrahydro-pyran-4-yl)-indol-1-yl]-pyrimidin-2-ylamino}-cyclohexyl)-methanone]",168 to 169 °C

row,Structure (SMILES),melting point
1,"CS(=O)(=O)N[C@H]1CC[C@H](Nc2nccc(-n3ccc4c(OCCCC(F)(F)F)cccc43)n2)CC1 [Compound 235, N-(4-{4-[4-(4,4,4-tri-fluoro-butoxy)-indol-1-yl]-pyrimidin-2-yl-amino}-cyclohexyl)-methanesulfonamide]",241 to 242 °C
2,"COCCCOc1cccc2c1ccn2-c1ccnc(N[C@H]2CC[C@H](NS(C)(=O)=O)CC2)n1 [Compound 236, N-(4-{4-[4-(3-methoxy-propoxy)-indol-1-yl]-pyrimidin-2-ylamino}-cyclohexyl)-methanesulfonamide]",207 to 208 °C
3,"CS(=O)(=O)CCCOc1cccc2c1ccn2-c1ccnc(N[C@H]2CC[C@H](C(=O)N3CCC(F)CC3)CC2)n1 [Compound 239, (4-fluoro-piperidin-1-yl)-(4-{4-[4-(3-methane-sulfonyl-propoxy)-indol-1-yl]-pyrimidin-2ylamino}-cyclohexyl)-methanone]",115 to 116 °C
4,"CC(C)(O)c1cccc2c1ccn2-c1ccnc(N[C@H]2CC[C@H](N(CCO)S(C)(=O)=O)CC2)n1 [Compound 240, N-(2-hydroxyethyl)-N-(4-{4-[4-(2-hydroxy-prop-2-yl)-indol-1-yl]-pyrimidin-2-ylamino}-cyclohexyl)-methane-sulfonamide]",214 to 215 °C
5,"Oc1cccc2c1cnn2-c1ccnc(N[C@H]2CC[C@H](O)CC2)n1 [Compound 242, 1-[2-(4-hydroxy-cyclohexylamino)-pyrimidin-4-yl]-1H-indazol-4-ol]",> 300 °C
6,"NS(=O)(=O)CCCOc1cccc2c1cnn2-c1ccnc(N[C@H]2CC[C@H](C(=O)N3CCC(O)CC3)CC2)n1 [Compound 243, 3-(1-{2-[4-(4-hydroxy-piperidine-1-carbonyl)-cyclohexylamino]-pyrimidin-4-yl}-1H-indazol-4yloxy)-propane-1-sulfonic acid amide]",237 to 238 °C
7,"CS(=O)(=O)N[C@H]1CC[C@H](Nc2nccc(-n3cc(C#N)c4ccccc43)n2)CC1 [Compound 247, N-{4-[4-(3-cyano-indol-1-yl)-pyrimidin-2-ylamino]-cyclohexyl}-methanesulfonamide]",> 300 °C
8,"CN([C@H]1CC[C@H](Nc2nccc(-n3cc(C#N)c4ccccc43)n2)CC1)S(C)(=O)=O [Compound 248, N-{4-[4-(3-cyano-indol-1-yl)-pyrimidin-2-ylamino]-cyclohexyl}-N-methyl-methane-sulfonamide]",289 to 290 °C
9,"N#Cc1cn(-c2ccnc(N[C@H]3CC[C@H](C(=O)N4CCC(O)CC4)CC3)n2)c2ccccc12 [Compound 249, 1-{2-[4-(4-hydroxy-piperidine-1-carbonyl)-cyclohexylamino]-pyrimidin-4-yl}-1H-indol-3-carbonitrile]",259 to 260 °C
10,"CS(=O)(=O)CCCOc1cccc2c1ccn2-c1ccnc(N[C@H]2CC[C@H](C(N)=O)CC2)n1 [Compound 250, 4-{4-[4-(3-methane-sulfonyl-propoxy)-indol-1-yl]-pyrimidin-2-ylamino}-cyclohexane-carboxylic acid amide]",249 to 250 °C
11,"CN(C)C(=O)[C@H]1CC[C@H](Nc2nccc(-n3ccc4c(OCCCS(C)(=O)=O)cccc43)n2)CC1 [Compound 251, 4-{4-[4-(3-methane-sulfonyl-propoxy)-indol-1-yl]-pyrimidin-2-ylamino}-cyclohexane-carboxylic acid dimethylamide]",169 to 170 °C
12,"CS(=O)(=O)CCCOc1cccc2c1cnn2-c1ccnc(N[C@H]2CC[C@H](C(=O)c3ccccc3)CC2)n1 [Compound 255, (4-{4-[4-(3-methane-sulfonyl-propoxy)-indazol-1-yl]-pyrimidin-2-ylamino}-cyclohexyl)-phenyl-methanone]",174.5 to 175.5 °C
13,"CS(=O)(=O)CCCOc1cccc2c1cnn2-c1ccnc(N[C@H]2CC[C@H](C(=O)c3ccccn3)CC2)n1 [Compound 256, (4-{4-[4-(3-methane-sulfonyl-propoxy)-indazol-1-yl]-pyrimidin-2-ylamino}-cyclohexyl)-pyrid-2-yl-methanone]",200 to 201 °C
14,"COC(=O)c1cccc2c1ccn2-c1ccnc(N[C@H]2CC[C@H](NS(=O)(=O)C3CC3)CC2)n1 [Compound 257, 1-[2-(4-cyclopropane-sulfonylamino-cyclo-hexylamino)-pyrimidin-4-yl]-1H-indole-4-carboxylic acid methyl ester]",250 to 251 °C
15,"CC(C)(O)c1cccc2c1ccn2-c1ccnc(N[C@H]2CC[C@H](NS(=O)(=O)N3CCCC3)CC2)n1 [Compound 258, Pyrrolidine-1-sulfonic acid (4-{4-[4-(2-hydroxyprop-2-yl)-indol-1-yl]-pyrimidin-2-ylamino}-cyclohexyl)-amide]",178 to 179 °C
